Experimental findings from patent publication US12415815B2, “Pyrido[2,3-e]oxazine derivatives as agricultural chemicals” (GLOBACHEM NV, priority 2020, dated 2025) are described below.

The term EC50 denotes the concentration that produces a half-maximal response.

Holding throughout (type): cell-based
One test concerns Botrytis cinerea. Kind of test: Fungicidal activity screen in amended agar, 96 well plates, Botrytis cinerea. Conditions: Medium N agar, 5,000 spores/ml, 20, 2, 0.2 and 0.02 ppm, room temperature (18° C.), assessed after 3 to 4 days, read-out: Botrytis (fungal growth vs DMSO controls, EC50 ranking). Here is the method:
(§1) Compounds were screened in 96 well plates with 10 compounds per plate. Each compound was screened using agar amended to 20, 2, 0.2 and 0.02 ppm of the test material. Proline at 50 and 10 ppm and 0.2% DMSO were used respectively as positive and negative controls. Each test concentration and standard were tested twice on a plate.
(§2) Compounds were screened against the following three fungal pathogens—Botrytis cinerea, Alternaria alternata and Zymoseptoria tritici. The agar used in the test varied depending on the pathogen with Medium N used for B. cinerea and A. alternata and 1% potato dextrose agar for Z. tritici. For each pathogen sufficient spores were added to the appropriate agar to give 1,000 spores/mL agar of A. alternata, 5,000 spores/ml agar of B. cinerea and 10,000 spores/mL agar of Z. tritici.
(§3) A ×10 stock solution in 2% DMSO was produced for each dose i.e. 200, 20, 2 and 0.2 ppm, and 10 μl of this added to the appropriate wells on the plate. An equivalent amount of 2% DMSO and Proline stock at 500 and 100 ppm were added for the controls. To each well, 90 μl of the appropriate agar spore suspension was added to give the final well concentrations outlined in the first paragraph.
(§4) Plates were incubated at room temperature (18° C.) and assessed after: • a) 3 to 4 days A. alternata and B. cinerea • b) 7 days for Z. tritici
(§5) The amount of fungal growth in each well was compared to the DMSO controls and scored according to the following key: • A—EC50<2 ppm • B—2≤EC50<20 • C—EC50≥20 • D—No activity detected at the highest dose tested • NT—Not tested

Another test has as its system Alternaria alternata. The test is described as follows: Fungicidal activity screen in amended agar, 96 well plates, Alternaria alternata. Particulars: Medium N agar, 1,000 spores/mL, 20, 2, 0.2 and 0.02 ppm, room temperature (18° C.), assessed after 3 to 4 days, read-out: Alternaria (fungal growth vs DMSO controls, EC50 ranking). Here is the method:
as §1, §2, §3, §4, §5

A further test deals with Zymoseptoria tritici. Kind of test: Fungicidal activity screen in amended agar, 96 well plates, Zymoseptoria tritici. Particulars: Zymoseptoria tritici, 168 h; 1% potato dextrose agar, 10,000 spores/mL, 20, 2, 0.2 and 0.02 ppm, room temperature (18° C.), assessed after 7 days; read-out: Zymoseptoria (fungal growth vs DMSO controls, EC50 ranking). Here is the method: as §1, §2, §3, §4, §5

≈ marks a conversion by molar mass, not a printed value. Bounds are passed on as bounds.

As to `COc1ccnc2c(=O)n(-c3nc4ccc(OC5CCCC5)cc4s3)c(=S)oc12` [Example 23, 3-(6-(Cyclopentyloxy)benzo[d]thiazol-2-yl)-8-methoxy-2-thioxo-2,3-dihydro-4H-pyrido[2,3-e][1,3]oxazin-4-one], the EC50 in the test on Botrytis cinerea was 2 to 20 µg/mL (≈ 4.68 to 46.8 µM); in the test on Alternaria alternata it was at least 20 µg/mL; with Zymoseptoria tritici, below 2 µg/mL.

Consider `COc1ccnc2c(=O)n(-c3nc4ccc(Sc5ccccc5)cc4s3)c(=S)oc12` [Example 27, 8-Methoxy-3-(6-(phenylthio)benzo[d]thiazol-2-yl)-2-thioxo-2,3-dihydro-4H-pyrido[2,3-e][1,3]oxazin-4-one], for which the EC50 in the test on Botrytis cinerea was at least 20 µg/mL; with Alternaria alternata, 2 to 20 µg/mL (≈ 4.43 to 44.3 µM); in the test on Zymoseptoria tritici, below 2 µg/mL.

On to `COc1ccnc2c(=O)n(-c3nc4ccc(Cc5ccc(F)cc5Cl)cc4s3)c(=S)oc12` [Example 28, 3-(6-(2-Chloro-4-fluorobenzyl)benzo[d]thiazol-2-yl)-8-methoxy-2-thioxo-2,3-dihydro-4H-pyrido[2,3-e][1,3]oxazin-4-one], for which the EC50 in the test on Botrytis cinerea was 2 to 20 µg/mL (≈ 4.12 to 41.2 µM); in the test with Alternaria alternata, 2 to 20 µg/mL (≈ 4.12 to 41.2 µM); with Zymoseptoria tritici, below 2 µg/mL.

Consider `COc1ccnc2c(=O)n(-c3nc4ccc(Cc5ccccc5Cl)cc4s3)c(=S)oc12` [Example 29, 3-(6-(2-Chlorobenzyl)benzo[d]thiazol-2-yl)-8-methoxy-2-thioxo-2,3-dihydro-4H-pyrido[2,3-e][1,3]oxazin-4-one], for which the figures for the EC50 in the test with Botrytis cinerea, in the test on Alternaria alternata and with Zymoseptoria tritici were at least 20 µg/mL, at least 20 µg/mL and below 2 µg/mL, respectively.

With `COc1ccnc2c(=O)n(-c3nc4ccc(Oc5cccnc5Cl)cc4s3)c(=S)oc12` [Example 36, 3-(6-((2-chloropyridin-3-yl)oxy)benzo[d]thiazol-2-yl)-8-methoxy-2-thioxo-2,3-dihydro-4H-pyrido[2,3-e][1,3]oxazin-4-one], the EC50 in the test with Botrytis cinerea is at least 20 µg/mL; in the test on Alternaria alternata it was at least 20 µg/mL; with Zymoseptoria tritici, below 2 µg/mL.

Consider `COc1ccnc2c(=O)n(-c3nc4ccc(Sc5ccccc5Cl)nc4s3)c(=S)oc12` [Example 38, 3-(5-((2-chlorophenyl)thio)thiazolo [5,4-b]pyridin-2-yl)-8-methoxy-2-thioxo-2,3-dihydro-4H-pyrido[2,3-e][1,3]oxazin-4-one], for which the EC50 in the test on Botrytis cinerea is at least 20 µg/mL; in the test on Alternaria alternata, at least 20 µg/mL; in the test on Zymoseptoria tritici, below 2 µg/mL.

With `COc1ccnc2c(=O)n(-c3nc4ccc(Oc5ccccc5OC(F)(F)F)cc4s3)c(=S)oc12` [Example 39, 8-methoxy-2-thioxo-3-(6-(2-(trifluoromethoxy)phenoxy)benzo[d]thiazol-2-yl)-2,3-dihydro-4H-pyrido[2,3-e][1,3]oxazin-4-one], the EC50 was at least 20 µg/mL with Botrytis cinerea, at least 20 µg/mL in the test with Alternaria alternata and below 2 µg/mL in the test on Zymoseptoria tritici.

Consider `COc1ccnc2c(=O)n(-c3nc4ccc(Oc5ccccc5Cl)nc4s3)c(=S)oc12` [Example 40, 3-(5-(2-chlorophenoxy)thiazolo[5,4-b]pyridin-2-yl)-8-methoxy-2-thioxo-2,3-dihydro-4H-pyrido[2,3-e][1,3] oxazin-4-one], for which the EC50 is at least 20 µg/mL with Botrytis cinerea, at least 20 µg/mL in the test with Alternaria alternata and below 2 µg/mL in the test on Zymoseptoria tritici.

As for `COc1ccnc2c(=O)n(-c3nc4ccc(Oc5cccnc5Cl)nc4s3)c(=S)oc12` [Example 41, 3-(5-((2-chloropyridin-3-yl)oxy)thiazolo[5,4-b]pyridin-2-yl)-8-methoxy-2-thioxo-2,3-dihydro-4H-pyrido[2,3-e][1,3]oxazin-4-one], the EC50 in the test on Botrytis cinerea, in the test with Alternaria alternata and in the test with Zymoseptoria tritici was at least 20 µg/mL each time.

Take `COc1ccccc1Oc1ccc2nc(-n3c(=S)oc4c(OC)ccnc4c3=O)sc2n1` [Example 42, 8-methoxy-3-(5-(2-methoxyphenoxy)thiazolo[5,4-b]pyridin-2-yl)-2-thioxo-2,3-dihydro-4H-pyrido[2,3-e][1,3]oxazin-4-one]: the EC50 in the test on Botrytis cinerea was at least 20 µg/mL; in the test with Alternaria alternata, at least 20 µg/mL; in the test on Zymoseptoria tritici, 2 to 20 µg/mL (≈ 4.29 to 42.9 µM).

For the compound `COc1ccnc2c(=O)n(-c3nc4ccc(Sc5cccnc5Cl)cc4s3)c(=S)oc12` [Example 47, 3-(6-((2-chloropyridin-3-yl)thio)benzo[d]thiazol-2-yl)-8-methoxy-2-thioxo-2,3-dihydro-4H-pyrido[2,3-e][1,3]oxazin-4-one], the EC50 in the test with Botrytis cinerea was at least 20 µg/mL; in the test with Alternaria alternata, at least 20 µg/mL; in the test with Zymoseptoria tritici it was below 2 µg/mL.

`COc1ccnc2c(=O)n(-c3nc4ccc(Oc5ccc(C(F)(F)F)cc5Cl)nc4s3)c(=S)oc12` [Example 48, 3-(5-(2-chloro-4-(trifluoromethyl)phenoxy)thiazolo[5,4-b]pyridin-2-yl)-8-methoxy-2-thioxo-2,3-dihydro-4H-pyrido[2,3-e][1,3]oxazin-4-one]: the EC50 in the test with Botrytis cinerea was at least 20 µg/mL; in the test with Alternaria alternata, at least 20 µg/mL; in the test with Zymoseptoria tritici it was below 2 µg/mL.

As for `CCOc1ccccc1Oc1ccc2nc(-n3c(=S)oc4c(OC)ccnc4c3=O)sc2c1` [Example 49, 3-(6-(2-ethoxyphenoxy)benzo[d]thiazol-2-yl)-8-methoxy-2-thioxo-2,3-dihydro-4H-pyrido[2,3-e][1,3]oxazin-4-one], the EC50 is at least 20 µg/mL in the test on Botrytis cinerea, at least 20 µg/mL in the test on Alternaria alternata and below 2 µg/mL with Zymoseptoria tritici.

Take `COc1ccnc2c(=O)n(-c3nc4ccc(Oc5ccccc5OC(F)F)cc4s3)c(=S)oc12` [Example 50, 3-(6-(2-(difluoromethoxy)phenoxy)benzo[d]thiazol-2-yl)-8-methoxy-2-thioxo-2,3-dihydro-4H-pyrido[2,3-e][1,3]oxazin-4-one]: the EC50 with Botrytis cinerea is at least 20 µg/mL; in the test with Alternaria alternata, at least 20 µg/mL; in the test with Zymoseptoria tritici it was below 2 µg/mL.
